We go through one compound from the NIST ThermoML archive (doi:10.1016/j.jct.2015.05.020).

Data set [1] is described as follows: Molar enthalpy of transition or fusion. Conditions: Crystal; DSC.
For data set [2] the following is noted: Crystal; visual observation.

Numbers after ± are expanded uncertainties.

Take `COc1cc(C=O)ccc1O` [vanillin]: the “Molar enthalpy of transition or fusion” value in data set [1] was 5.92 ± 0.406 kcal/mol. The Normal melting temperature in data set [2] was 81.60 ± 1.1 °C.
